“And” between values parts separate entries of the source, which are not always exact repeats. Equal values may be shown once. “Also recorded” adds a separate entry of the source.
Tests used:
BL21(DE3) cells = test: Cytotoxicity of Ir(Me)MPIX and cyclopropyl limonene, cell growth by OD600; conditions: for inhibition of cell growth: concentration range relevant for the study
Method: 10. […] Individual colonies from freshly transformed plates (incubated at 30° C.) were inoculated into 2 mL M9-rich media supplemented with appropriate antibiotics. A 1:100 dilution of overnight cultures into 300 μL M9-rich media was performed in a 48-well plate. […] The OD600 values were recorded by a plate reader (F200 or F200pro, Tecan) set at 30° C.
Cyclopropyl limonene; BL21(DE3) cells co-transformed with pHug21 (coding for HUG system) and pJHA110 (coding for CYP119 mutant) were grown and cultivated as described above. The stock solution of cyclopropyl limonene in ethanol was added to the cell culture to give final concentration of 0, 0.2, 1, 5, 25 mg/L cyclopropyl limonene and 1% (v/v) ethanol. The OD600 values were recorded by a plate reader (F200 or F200pro, Tecan) set at 30° C.

[1] = system: E. coli cells expressing limonene biosynthetic pathway; test: Effect of Ir(Me)MPIX addition on limonene titer; format: cell-based; conditions: 0.1 μM Ir(Me)MPIX in DMSO
Method: 6. Limonene biosynthesis. Chemically competent BL21(DE3) (NEB) cells were transformed with a plasmid coding for MEV pathway enzymes to produce limonene from glucose in E. coli (pJBEI6410 or pJBEI6409). […] The cultures were grown overnight at 30° C. and 200 rpm for 18 h. In a 50 mL glass culture tube, 10 mL of M9-rich media was inoculated with 100 μL of overnight starter culture and incubated at 37° C. and 200 rpm to an OD600 of ˜1. Unless otherwise indicated, the cultures were then induced by adding 50 μM IPTG (final concentration), and 10% (v/v) dodecane was added to trap the limonene produced. Upon induction, the temperature was reduced to 30° C. and expressions were allowed to continue for 24 h at 200 rpm. An aliquot of the 100 μL dodecane overlay was diluted with 900 μL ethyl acetate containing 40 mg/L beta-pinene (beta-pinene as internal standard) and analyzed by GC-MS.

[2] = target: T1, Sulfolobus CYP119 (cytochrome P450 119, parent sequence SEQ ID NO: 1), apo form, CYP119-141 mutant (C317G, T213G, V254L, L155W) (Sulfolobus acidocaldarius, UniProt Q55080, C317G/L155W/T213G/V254L); test: Binding affinity of apo-CYP119 towards Ir(Me)MPIX/hemin (intrinsic fluorescence quenching, Benesi-Hildebrand); design: species or system Sulfolobus solfataricus; conditions: excitation 294 nm, 10 mM TRIS buffer pH 8.0, Benesi-Hildebrand analysis
T1 construct: made in house
Method: Intrinsic fluorescence quenching;^8 Modified from a reported procedure, aliquots (10 μL) of metalloporphyrin stock solutions (in DMSO) were added to a solution containing 0.15 mg/L apo-CYP119 (CYP119-141 mutant, 800 μL, 10 mM TRIS buffer, pH 8.0). This addition caused the concentration of the protein to decrease from its initial value to a final concentration of 0.148 mg/L in the process. After each addition, the emission spectrum of CYP119 was recorded upon excitation at 294 nm. In quenching experiments, the concentration of the chromophore (CYP119 or porphyrin) was kept sufficiently low (<0.15) to ensure uniform light absorption throughout the sample and reduced inner filter effects. The fluorescence emission intensity was calculated as the integral of the emission spectrum in the recorded wavelength range (305-450 nm).

E. coli BL21(DE3) cells = test: Evaluation of the effect of Ir(Me)MPIX and cyclopropyl limonene on cell growth (OD600); format: cell-based, Escherichia coli; conditions: 30° C.
[3] = format: cell-based, E. coli; conditions: whole cells harboring Ir-CYP119 mutants, average of three biological repeats
[4] = Cyclopropanation of (−)-limonene by Ir-CYP119 reconstituted in vitro or free cofactor; format: biochemical; conditions: Ir-CYP119 mutants reconstituted in vitro, average of two replicates
Method: 12. […] The buffer of the protein solution was subsequently exchanged to TRIS buffer (20 mM, pH 7.5) using a NAP-10 column (GE Healthcare). […] To the reaction vial, 10 μL of 0.125 M stock solution of limonene in EtOH was added. The reaction vial was sealed with a cap containing a septum. The syringes of a multichannel syringe pump were loaded with a stock solution of EDA in DMSO (20 μL of 0.25 M solution of EDA in DMSO), and the EDA solution was added to the reaction over 1.5 h. The reaction was quenched upon the conclusion of the addition of EDA by adding 100 μL of 2 N HCl and extracted with 1 mL dodecane stock solution (0.1% (v/v) in ethyl acetate). The organic layer was then transferred to a separate vial for GC analysis.

CYP119 [5] = target: T2, CYP119 (Sulfolobus acidocaldarius, UniProt Q55080, C317G/L155W/T213G/V254L); test: ICP-MS measurement of CYP119 purified from E. coli co-expressing heme transport system (100 mL culture); format: cell-based; conditions: 0.1 μM Ir(Me)MPIX, single replicates
T2 construct: made in house; host or cells: E. coli BL21(DE3), co-transformed with pHug21 (HUG) or pBbS5a (RFP control)
Method: (§1) (b) Protein purification (100 mL culture); A plasmid containing CYP119 mutant (pJHA110) was co-transformed with a plasmid (pHug21) encoding the heme transport system HUG, or an empty vector backbone (pBbS5a) into chemically competent BL21(DE3) (NEB) cells. Individual colonies from freshly transformed plates were inoculated into 4 mL M9-rich media supplemented with 100 μg/mL carbenicillin and 25 μg/mL kanamycin. The cultures were grown overnight at 37° C. and 200 rpm. In a 500 mL Erlenmeyer flask, 100 mL of M9-rich media was inoculated with 1 mL of overnight starter culture and incubated at 37° C. and 200 rpm to an OD600 of 0.7˜0.8. […] Upon induction, the incubation temperature was reduced to 30° C., and expressions were allowed to continue for 18 h at 200 rpm. Cells were harvested by centrifugation and stored at −20° C. until purification.
(§2) Cell debris was removed by centrifugation (10000 rpm, 45 min, 4° C.). The supernatants were incubated with Ni-NTA agarose (50% suspension, 4 mL) on a tube rotator (15 min, 4° C., 20 rpm) and poured into glass frits (coarse, 50 mL). The resin was washed (3×35 mL) with Ni-NTA lysis buffer (50 mM NaPi, 250 mM NaCl, 10 mM Imidazole, pH 8.0). The desired protein was eluded with 15 mL Ni-NTA elusion buffer (50 mM NaPi, 250 mM NaCl, 250 mM Imidazole, pH 8.0) and concentrated to 1 mL with a 30 kDa molecular weight cut-off Amicon centrifugal filtration device (EMD Millipore).
(§3) (c) ICP-MS analysis; Cone. HNO3 was added to each sample (1 mL) in to make a final concentration of 4% (v/v). After microwave digestion (140° C., 30 min), the samples were analyzed by ICP-MS (Elemental Analysis Core, Oregon Health & Science University).

CYP119 [6] = target: T2, CYP119; test: Fe and Ir content of CYP119 purified from HUG/CYP119 E. coli (700 mL culture); format: cell-based; conditions: 0.2 mg/L Ir(Me)MPIX
Method: as §1, with “(b) Protein purification (100 mL culture); A plasmid containing CYP119 mutant (pJHA110) was co-transformed with a plasmid (pHug21) encoding the heme transport system HUG, or an empty vector backbone (pBbS5a) into chemically competent BL21(DE3) (NEB) cells.” left out
as §2, §3

[7] = 0, 0.1, 1, 10 μM Ir(Me)MPIX, M9-rich media

Molecule: CCC1=C(C)c2cc3[n-]c(cc4[n-]c(cc5nc(cc1n2)C(C)=C5CC)c(C)c4CCC(=O)O)c(CCC(=O)O)c3C.[CH3-].[Ir+3] [Ir(Me)MPIX]
- effect on cell growth (BL21(DE3) cells; BL21(DE3) expressing the HUG system, 0-10 μM): little effect
- effect on cell growth (BL21(DE3) cells; BL21(DE3) with empty vector pBbS5K, 0-10 μM): little effect
- inhibition of cell growth (BL21(DE3) cells): did not inhibit cell growth
- effect on limonene titer [1]: unaffected; also recorded: little impact
- Kb [2]: 4.2(0.3) × 10^5 M^−1
- Kd ([2]; read-out: Kd): 2400 nM
- effect on growth of BL21(DE3) cells expressing the HUG system (E. coli BL21(DE3) cells; [7]): little effect on the growth
- effect on growth of BL21(DE3) cells transformed with an empty vector pBbS5K (E. coli BL21(DE3) cells; [7]): little effect on the growth

Molecule: CCOC(=O)[C@H]1C[C@@]1(C)[C@@H]1CC=C(C)CC1 [cyclopropyl limonene]
- effect on cell growth (BL21(DE3) cells; BL21(DE3) with pHug21 and pJHA110, 0-25 mg/L): little effect
- inhibition of cell growth (BL21(DE3) cells): did not inhibit cell growth
- effect on growth of BL21(DE3) cells co-transformed with pHug21 and pJHA110 (encoding CYP119) (E. coli BL21(DE3) cells; 0, 0.2, 1, 5, 25 mg/L cyclopropyl limonene, 1% (v/v) ethanol): little effect on the growth

B1: P/256W: CYP119 mutant (C317G, T213G, V254L, L155W, R256W) (protein, UniProt Q55080 1-368, looked up, variant C317G T213G V254L L155W R256W)
Cytochrome P450 119: MYDWFSEMRKKDPVYYDGNIWQVFSYRYTKEVLNNFSKFSSDLTGYHERLEDLRNGKIRFDIPTRYTMLTSDPPLHDELRSMSADIFSPQKLQTLETFIRETTRSLLDSIDPREDDIVKKLAVPLPIIVISKILGLPIEDKEKFKEWSDLVAFRWGKPGEIFELGKKYLELIGYVKDHLNSGTEVVSRVVNSNLSDIEKLGYIILLLIAGNEGTTNLISNSVIDFTRFNLWQRIREENLYLKAIEEALRYSPPLMWTVRKTKERVKLGDQTIEEGEYVRVWIASANRDEEVFHDGEKFIPDRNPNPHLSFGSGIHLGLGAPLARLEARIAIEEFSKRFRHIEILDTEKVPNEVLNGYKRLVVRLKSNE
- in vivo diastereoselectivity (P2/Ptotal) [3]: 63%
- in vitro diastereoselectivity (P2/Ptotal) [4]: 48%

B2: ChuA/Ton/CYP119: CYP119 purified from E. coli transformed with pJHA184 (ChuA and Ton complex) and pJHA110 (protein, UniProt Q55080 1-368, looked up)
Cytochrome P450 119: MYDWFSEMRKKDPVYYDGNIWQVFSYRYTKEVLNNFSKFSSDLTGYHERLEDLRNGKIRFDIPTRYTMLTSDPPLHDELRSMSADIFSPQKLQTLETFIRETTRSLLDSIDPREDDIVKKLAVPLPIIVISKILGLPIEDKEKFKEWSDLVAFRLGKPGEIFELGKKYLELIGYVKDHLNSGTEVVSRVVNSNLSDIEKLGYIILLLIAGNETTTNLISNSVIDFTRFNLWQRIREENLYLKAIEEALRYSPPVMRTVRKTKERVKLGDQTIEEGEYVRVWIASANRDEEVFHDGEKFIPDRNPNPHLSFGSGIHLCLGAPLARLEARIAIEEFSKRFRHIEILDTEKVPNEVLNGYKRLVVRLKSNE
- Ir, total amount present in the purified protein (CYP119 [5]): 0.83 nmol and 0.69 nmol and 0.87 nmol

B3: HUG/CYP119: CYP119 purified from E. coli transformed with pHug21 (HUG system) and pJHA110 (protein, UniProt Q55080 1-368, looked up)
Cytochrome P450 119: MYDWFSEMRKKDPVYYDGNIWQVFSYRYTKEVLNNFSKFSSDLTGYHERLEDLRNGKIRFDIPTRYTMLTSDPPLHDELRSMSADIFSPQKLQTLETFIRETTRSLLDSIDPREDDIVKKLAVPLPIIVISKILGLPIEDKEKFKEWSDLVAFRLGKPGEIFELGKKYLELIGYVKDHLNSGTEVVSRVVNSNLSDIEKLGYIILLLIAGNETTTNLISNSVIDFTRFNLWQRIREENLYLKAIEEALRYSPPVMRTVRKTKERVKLGDQTIEEGEYVRVWIASANRDEEVFHDGEKFIPDRNPNPHLSFGSGIHLCLGAPLARLEARIAIEEFSKRFRHIEILDTEKVPNEVLNGYKRLVVRLKSNE
- Fe, total amount present in the purified protein (CYP119 [6]): 0.044 µmol and 0.031 µmol and 0.035 µmol
- Fe:CYP119 (molar ratio) (CYP119 [6]): 12.4% and 8.5% and 9.1%
- Ir, total amount present in the purified protein (CYP119 [6]): 0.039 µmol and 0.040 µmol and 0.041 µmol
- Ir:CYP119 (molar ratio) (CYP119 [6]): 11.0% and 11.1% and 10.8%
- Ir, total amount present in the purified protein (CYP119 [5]): 3.15 nmol and 3.66 nmol and 3.08 nmol

B4: P (C317G, T213G, V254L, L155W): parent CYP119 mutant (C317G, T213G, V254L, L155W) (protein)
chain: MYDWFSEMRKKDPVYYDGNIWQVFSYRYTKEVLNNFSKFSSDLTGYHERLEDLRNGKIRFDIPTRYTMLTSDPPLHDELRSMSADIFSPQKLQTLETFIRETTRSLLDSIDPREDDIVKKLAVPLPIIVISKILGLPIEDKEKFKEWSDLVAFRWGKPGEIFELGKKYLELIGYVKDHLNSGTEVVSRVVNSNLSDIEKLGYIILLLIAGNEGTTNLISNSVIDFTRFNLWQRIREENLYLKAIEEALRYSPPLMRTVRKTKERVKLGDQTIEEGEYVRVWIASANRDEEVFHDGEKFIPDRNPNPHLSFGSGIHLGLGAPLARLEARIAIEEFSKRFRHIEILDTEKVPNEVLNGYKRLVVRLKSNE
- in vivo diastereoselectivity (P2/Ptotal) [3]: 53%
- in vitro diastereoselectivity (P2/Ptotal) [4]: 20%

B5: RFP/CYP119: CYP119 purified from E. coli transformed with pBbS5a (RFP control) and pJHA110 (protein, UniProt Q55080 1-368, looked up)
Cytochrome P450 119: MYDWFSEMRKKDPVYYDGNIWQVFSYRYTKEVLNNFSKFSSDLTGYHERLEDLRNGKIRFDIPTRYTMLTSDPPLHDELRSMSADIFSPQKLQTLETFIRETTRSLLDSIDPREDDIVKKLAVPLPIIVISKILGLPIEDKEKFKEWSDLVAFRLGKPGEIFELGKKYLELIGYVKDHLNSGTEVVSRVVNSNLSDIEKLGYIILLLIAGNETTTNLISNSVIDFTRFNLWQRIREENLYLKAIEEALRYSPPVMRTVRKTKERVKLGDQTIEEGEYVRVWIASANRDEEVFHDGEKFIPDRNPNPHLSFGSGIHLCLGAPLARLEARIAIEEFSKRFRHIEILDTEKVPNEVLNGYKRLVVRLKSNE
- Ir, total amount present in the purified protein (CYP119 [5]): 0.66 nmol and 0.59 nmol and 0.62 nmol

Source: patent US12129493B2, “Host cells and methods useful for producing unnatural terpenoids using a novel artificial metalloenzyme” (The Regents of the University of California, priority 2020, dated 2024)
